Laboratory results from patent publication US20240246979A1, “cGAS INHIBITORS” (Eli Lilly and Company, priority 2022, published 2024).

Legend:
cGAS [1] = target: T1, cGAS (Homo sapiens, UniProt Q8N884); test: Cellular assay to measure cGAS activity (IFNb AlphaLISA in THP1 cells stimulated by RDG-Adenovirus-GFP); type: cell-based; parameters: host or cells: THP1 cells differentiated with PMA and stimulated with RDG-Adenovirus-GFP; conditions: PMA-differentiated THP1 cells, RDG-Adenovirus-GFP at 1000 MOI; inhibition of IFNb production as marker for cGAS activity
T1 sequence (Q8N884 whole entry): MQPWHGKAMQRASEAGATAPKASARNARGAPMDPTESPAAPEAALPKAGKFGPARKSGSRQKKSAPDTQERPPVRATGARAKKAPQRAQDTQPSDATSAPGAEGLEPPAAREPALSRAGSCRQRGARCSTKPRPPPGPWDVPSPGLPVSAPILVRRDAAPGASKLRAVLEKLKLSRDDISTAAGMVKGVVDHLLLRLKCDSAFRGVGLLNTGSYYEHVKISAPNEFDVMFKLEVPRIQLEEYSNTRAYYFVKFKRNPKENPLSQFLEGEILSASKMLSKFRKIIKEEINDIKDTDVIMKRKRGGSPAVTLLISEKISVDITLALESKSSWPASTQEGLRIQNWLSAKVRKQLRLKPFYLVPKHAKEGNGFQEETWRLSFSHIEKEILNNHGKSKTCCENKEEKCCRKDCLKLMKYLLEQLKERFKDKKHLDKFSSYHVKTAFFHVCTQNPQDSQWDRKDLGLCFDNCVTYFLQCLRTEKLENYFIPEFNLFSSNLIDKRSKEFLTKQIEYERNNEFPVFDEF
Summary of the method: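 PMA-differentiated THP1 cells were infected with RDG-Adenovirus-GFP at 1000 MOI for 4 h, then exposed overnight to test compounds. IFNb in the supernatant was quantified by AlphaLISA as a cGAS activity marker, and IC50 was fitted with a 4-parameter logistic equation.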

cGAS [2] = target: T1, cGAS; test: In vitro inhibition assay of cGAS activity (cGAMP production, RapidFire mass spectrometry); type: biochemical; parameters: Insert cDNA encoding full-length of human cGAS; His6; made in house; host or cells: E. coli BL21(DE3); conditions: 10 nM recombinant human cGAS, 60 nM 75-bp dsDNA, 50 μM ATP, 50 μM GTP, 3 hrs
Summary of the method: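 His6-tagged full-length human cGAS (10 nM, E. coli-expressed) was incubated for 3 hrs at ambient temperature with 60 nM 75-bp dsDNA, 50 μM ATP and 50 μM GTP in Tris pH 7.5/MgCl2 buffer with compound dilutions. cGAMP was quantified by RapidFire mass spectrometry against an internal standard, and IC50 was obtained by 4-parameter logistic fit.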

Compound	IC50 (cGAS [1])	IC50 (cGAS [2])
N#CCc1cc(Cl)c(Cl)c2[nH]c3c(c12)CC(=O)NCC3CCO (stereo not drawn) [Example 113, 2-(7,8-Dichloro-5-(2-hydroxyethyl)-2-oxo-1,2,3,4,5,6-hexahydroazepino[4,5-b]indol-10-yl)acetonitrile]	1.74 µM	0.0373 µM
N#CCc1cc(Cl)c(Cl)c2c1c1c3n2CCC3CNC(=O)C1 (stereo not drawn) [Example 114, 2-(8,9-Dichloro-2-oxo-2,3,4,4a, 5,6-hexahydro-1H-azepino[3,4,5-gh]benzo[b]pyrrolizin-11-yl)acetonitrile]	1.27 µM	0.0384 µM
N#CCOc1cc(Cl)c(Cl)c2c1c1c3n2CCC3CNC(=O)C1 (stereo not drawn) [Example 115, 2-((8,9-Dichloro-2-oxo-2,3,4,4a, 5,6-hexahydro-1H-azepino[3,4,5-gh]benzo[b]pyrrolizin-11-yl)oxy)acetonitrile]	1.95 µM	0.0224 µM
Cn1ncc(-c2cc(Cl)c(Cl)c3c2c2c4n3CCC4CNC(=O)C2)n1 (stereo not drawn) [Example 116, 8,9-Dichloro-11-(2-methyl-2H-1,2,3-triazol-4-yl)-1,3,4,4a, 5,6-hexahydro-2H-azepino[3,4,5-gh]benzo[b]pyrrolizin-2-one]	0.64 µM	0.0148 µM
CN(C)C(=O)CC1CNC(=O)Cc2c1[nH]c1c(Cl)c(Cl)cc(CC#N)c21 (stereo not drawn) [Example 117, 2-(7,8-Dichloro-10-(cyanomethyl)-2-oxo-1,2,3,4,5,6-hexahydroazepino[4,5-b]indol-5-yl)-N,N-dimethylacetamide]	1.32 µM	0.0186 µM
CN(C)CCC1CNC(=O)Cc2c1[nH]c1c(Cl)c(Cl)cc(-c3cnn(C)n3)c21 (stereo not drawn) [Example 118, 7,8-Dichloro-5-(2-(dimethylamino)ethyl)-10-(2-methyl-2H-1,2,3-triazol-4-yl)-3,4,5,6-tetrahydroazepino[4,5-b]indol-2(1H)-one]	0.577 µM	0.0424 µM
CC(O)CC1CNC(=O)Cc2c1[nH]c1c(Cl)c(Cl)cc(-c3cnn(C)n3)c21 (stereo not drawn) [Example 119, 7,8-Dichloro-5-(2-hydroxypropyl)-10-(2-methyl-2H-1,2,3-triazol-4-yl)-3,4,5,6-tetrahydroazepino[4,5-b]indol-2(1H)-one]	0.487 µM	0.0232 µM
CC(O)CC1CNC(=O)Cc2c1[nH]c1c(Cl)c(Cl)cc(CC#N)c21 (stereo not drawn) [Example 120, 2-(7,8-Dichloro-5-(2-hydroxypropyl)-2-oxo-1,2,3,4,5,6-hexahydroazepino[4,5-b]indol-10-yl)acetonitrile]	0.716 µM	0.0119 µM
Cn1c2c(c3c(CC#N)cc(Cl)c(Cl)c31)CC(=O)NCC2CCO (stereo not drawn) [Example 121, 2-(7,8-Dichloro-5-(2-hydroxyethyl)-6-methyl-2-oxo-1,2,3,4,5,6-hexahydroazepino[4,5-b]indol-10-yl)acetonitrile]	0.18 µM	0.0172 µM
Cn1c2c(c3c(OCC#N)cc(Cl)c(Cl)c31)CC(=O)NCC2CCO (stereo not drawn) [Example 124, 2-((7,8-Dichloro-5-(2-hydroxyethyl)-6-methyl-2-oxo-1,2,3,4,5,6-hexahydroazepino[4,5-b]indol-10-yl)oxy)acetonitrile]	0.468 µM	0.0323 µM
Cn1ncc(-c2cc(Cl)c(Cl)c3c2c2c(n3C)C(CCO)CNC(=O)C2)n1 (stereo not drawn) [Example 127, 7,8-Dichloro-5-(2-hydroxyethyl)-6-methyl-10-(2-methyl-2H-1,2,3-triazol-4-yl)-3,4,5,6-tetrahydroazepino[4,5-b]indol-2(1H)-one]	1.21 µM	0.0344 µM
CC1C(=O)NCC(C)(C)c2[nH]c3c(Cl)c(Cl)cc(NCCO)c3c21 (stereo not drawn) [Example 131, 7,8-Dichloro-10-((2-hydroxyethyl)amino)-1,5,5-trimethyl-3,4,5,6-tetrahydroazepino[4,5-b]indol-2(1H)-one]	2.72 µM	0.0533 µM
COCCNc1cc(Cl)c(Cl)c2c1c1c(n2C(F)F)CCNC(=O)C1C (stereo not drawn) [Example 141, 7,8-Dichloro-6-(difluoromethyl)-10-((2-methoxyethyl)amino)-1-methyl-3,4,5,6-tetrahydroazepino[4,5-b]indol-2(1H)-one]	2.44 µM	0.0354 µM
CC1C(=O)NCCc2c1c1c(NC(=O)CO)cc(Cl)c(Cl)c1n2C(F)F (stereo not drawn) [Example 144, N-(7,8-Dichloro-6-(difluoromethyl)-1-methyl-2-oxo-1,2,3,4,5,6-hexahydroazepino[4,5-b]indol-10-yl)-2-hydroxyacetamide]	0.649 µM	0.0225 µM

Next, values leading:

IC50 (cGAS [1])	IC50 (cGAS [2])	Compound
1.28 µM	0.0487 µM	CCC1CNC(=O)Cc2c1[nH]c1c(Cl)c(Cl)cc(-c3cnn(C)n3)c21 (stereo not drawn) [Example 162, 7,8-Dichloro-5-ethyl-10-(2-methyl-2H-1,2,3-triazol-4-yl)-3,4,5,6-tetrahydroazepino[4,5-b]indol-2(1H)-one]
1.62 µM	0.0231 µM	CCC1CNC(=O)Cc2c1[nH]c1c(Cl)c(Cl)cc(NCCO)c21 (stereo not drawn) [Example 163, 7,8-Dichloro-5-ethyl-10-((2-hydroxyethyl)amino)-3,4,5,6-tetrahydroazepino[4,5-b]indol-2(1H)-one]
1.38 µM	0.0189 µM	CCCC1CNC(=O)Cc2c1[nH]c1c(Cl)c(Cl)cc(-c3cnn(C)n3)c21 (stereo not drawn) [Example 164, 7,8-Dichloro-10-(2-methyl-2H-1,2,3-triazol-4-yl)-5-propyl-3,4,5,6-tetrahydroazepino[4,5-b]indol-2(1H)-one]
1.73 µM	0.0442 µM	CC1Cc2[nH]c3c(Cl)c(Cl)cc(NCCO)c3c2CC(=O)N1 (stereo not drawn) [Example 165, 7,8-Dichloro-10-((2-hydroxyethyl)amino)-4-methyl-3,4,5,6-tetrahydroazepino[4,5-b]indol-2(1H)-one]
7.11 µM	0.0389 µM	COC(=O)CC1CNC(=O)Cc2c1[nH]c1c(Cl)c(Cl)cc(CC#N)c21 (stereo not drawn) [Example 176, Methyl 2-(7,8-dichloro-10-(cyanomethyl)-2-oxo-1,2,3,4,5,6-hexahydroazepino[4,5-b]indol-5-yl)acetate]
0.793 µM	0.0237 µM	CC1C(=O)NCCc2[nH]c3c(Cl)c(Cl)cc(OC[C@H]4CCO4)c3c21 (stereo partly drawn) [Example 180, 7,8-Dichloro-1-methyl-10-(((R)-oxetan-2-yl)methoxy)-3,4,5,6-tetrahydroazepino[4,5-b]indol-2(1H)-one]
1.85 µM	0.0409 µM	CC1C(=O)NCCc2[nH]c3c(Cl)c(Cl)cc(OC4COC4)c3c21 (stereo not drawn) [Example 183, 7,8-Dichloro-1-methyl-10-(oxetan-3-yloxy)-3,4,5,6-tetrahydroazepino[4,5-b]indol-2(1H)-one]
